Results from US20140243374A1, “Novel Sulfonamides” (The Brigham and Women's Hospital, Inc., priority 2011, published 2014).
“And” between values parts separate entries of the source, which are not always exact repeats. Identical values can stand only once. Counter-ions that a name gives are not always drawn.

Legend:
[1] = target: T1, γ-secretase (Notch cleavage activity) (Homo sapiens, UniProt P49768); experiment: Cleaved Notch1 Sandwich ELISA (SUP-T1 cell line); type: cell-based; conditions: for IC50: SUP-T1 cells, 16 h; for Notch Elisa/Aβ42: ratio Notch Elisa IC50 to Aβ42 IC50
T1 construct: endogenous in cells; host or cells: SUP-T1 cells
Protocol: Cleaved Notch1 Sandwich ELISA.
This assay was used to determine if the compounds of interest inhibit the Notch cleavage activity of γ-secretase in SUP-T1 cell line, which endogenously expresses a truncated Notch receptor fragment that is a viable gamma-secretase substrate. The base medium for this cell line is ATCC-formulated RPMI-1640 Medium with fetal bovine serum to a final concentration of 10%. Prepare dilution of SUP-T1 cells in complete growth medium to 1.0×10^6 cells/mL, seed 1.5 mL per well of each cell dilution into a 6-well plate. Collect cells treated with serial diluted compounds in DMSO after 16 h, then using equal amount of protein isolated from samples to measure Notch intracellular cleavage by PathScan® Sandwich ELISA Kit (Cell Signaling Tech 7194S).

[2] = target: T2, γ-secretase (cleavage of APP, Aβ42) (Homo sapiens, UniProt P49768); experiment: Aβ (1-42) cellular assay (Aβ ELISA, HEK AP-GL-T1 6 cells); type: cell-based; conditions: for IC50: cellular Aβ42 ELISA, 24 h compound treatment; for inhibition at 1 µM: at 1 μM (concentration in brackets)
T2 construct: endogenous in cells; host or cells: HEK AP-GL-T16 luciferase reporter cells (tetracycline-induced APP substrate)
Protocol: Aβ (1-42) Cellular Assay.
The following assay was used to determine the extent to which the compounds of interest inhibit the cleavage of APP in vivo. AβELISA is a commercial fluorometric kit from Biosource (Invitrogen 89344). Luciferase reporter HEK AP-GL-T1 6 cells were plated at 50,000 cells/well in 96 well plates in DMEM media containing 10% tetracyclin free […], 250 μg/mL zeocin, 200 μg/mL hygromycin, and 5 μg/mL blasticidin. Compounds were added 24 h after plating and APP processing is induced simultaneously by addition of tetracycline. Following a 24 h compound treatment, […] of conditioned cell media is collected, mixed with ELISA diluent buffer containing 2 mM AEBSF and 12 mM o-phenanthroline, and immediately frozen at −80° C. For the ELISA, the samples were brought to room temperature and spun at 5000 rpm for 5 min. Samples ([…]) are incubated in the ELISA plate with […] detection antibody on a shaker at room temperature for 3 h. Wells were then washed 4 times with wash buffer and 100 mL of secondary antibody are added and incubated at room temperature for 30 min. Wells were again washed 4 times with wash buffer and 100 mL of fluorescent substrate solution are added. After 30 minutes of incubation, fluorescent signals are determine on a Gemini reader at ex 460 nm and em 560 nm. The amount of Aβ levels in each sample was determined from a standard curve generated by known concentrations of Aβ peptide run simultaneously with the samples.

| Molecule | IC50 [1] | Notch Elisa/Aβ42 [1] | IC50 [2] | inhibition at 1 µM ([2]; read-out: Aβ42 % Inh) | inhibition at 30 µM ([2]; at 30 μM (concentration in brackets), read-out: Aβ42 % Inh) |
| --- | --- | --- | --- | --- | --- |
| COCC(C)NC(=O)c1ccc(CN(C2CCCCC2F)S(=O)(=O)c2ccc(Cl)cc2)cc1 (centres unmarked) [Example 85, 4-((4-Chloro-N-(2-fluorocyclohexyl)phenylsulfonamido)methyl)-N-(1-methoxypropan-2-yl)benzamide] | 1.18 µM | 89 | 0.0133 µM | – | – |
| O=C(O)c1ccc(CN(C2CCCC(C(F)(F)F)C2)S(=O)(=O)c2ccc(Cl)nc2)cc1 (centres unmarked) [Example 63, 4-((6-Chloro-N-(3-(trifluoromethyl)cyclohexyl)pyridine-3-sulfonamido)methyl)benzoic acid] | – | – | – | 87% | – |
| CCN(CCN1CCCC1)C(=O)c1ccc(CN(C2CCCCC2C)S(=O)(=O)c2ccc(Cl)cc2)cc1 (centres unmarked) [Example 39, 4-((4-Chloro-N-(2-methylcyclohexyl)phenylsulfonamido)methyl)-N-ethyl-N-(2-(pyrrolidin-1-yl)ethyl)benzamide] | 2.26 µM | 38 | 0.0407 µM and 0.0774 µM | – | – |
| O=C(O)c1ccc(CN(C2CCCCC2(F)F)S(=O)(=O)c2ccc(Cl)cc2)cc1 (centres unmarked) [Example 76, 4-((4-Chloro-N-(2,2-difluorocyclohexyl)phenylsulfonamido)methyl)benzoic acid] | 5.06 µM | 56 | 0.0899 µM | – | – |
| O=C(O)CNC(=O)c1ccc(CN(C2CCCCC2F)S(=O)(=O)c2ccc(Cl)cc2)cc1 (centres unmarked) [Example 79, 2-(4-((4-Chloro-N-(2-fluorocyclohexyl)phenylsulfonamido)methyl)benzamido)acetic acid] | – | – | 3.62 µM | – | – |
| Methyl 3-(4-((4-chloro-N-(2-methylcyclohexyl)phenylsulfonamido)methyl)benzamido)propanoate [Example 35] | – | – | 0.0297 µM | – | – |
| O=C(O)c1ccc(CN([C@@H]2CCCC[C@H]2F)S(=O)(=O)c2ccc(Cl)cc2)cc1 [Example 84, 4-((4-Chloro-N-((1R,2R)-2-fluorocyclohexyl)phenylsulfonamido)methyl)benzoic acid] | – | – | 0.141 µM | – | – |
| C[C@H](CO)NC(=O)c1ccc(CN(C2CCCCC2F)S(=O)(=O)c2ccc(Cl)nc2)cc1 (stereo partly drawn) [Example 65, 4-((6-Chloro-N-(2-fluorocyclohexyl)pyridine-3-sulfonamido)methyl)-N—((R)-1-hydroxypropan-2-yl)benzamide] | 1.15 µM | 84 | 0.0137 µM | – | – |
| CC1CCCCC1N(Cc1ccc(C#N)cc1)S(=O)(=O)c1ccc(Cl)cc1 (centres unmarked) [Example 78, 4-Chloro-N-(4-cyanobenzyl)-N-(2-methylcyclohexyl)benzenesulfonamide] | 0.879 µM | 63 | 0.014 µM | – | – |
| COC(=O)c1ccc(CN(C2CCCCC2F)S(=O)(=O)c2ccc(Cl)cc2)cc1 (centres unmarked) [Example 56, Methyl 4-((4-chloro-N-(2-fluorocyclohexyl)phenylsulfonamido)methyl)benzoate] | – | – | 0.00405 µM | – | – |
| COC(=O)c1ccc(CN(C2CCCC(C(F)(F)F)C2)S(=O)(=O)c2ccc(Cl)nc2)cc1 (centres unmarked) [Example 70, Methyl 4-((6-chloro-N-(3-(trifluoromethyl)cyclohexyl)pyridine-3-sulfonamido)methyl)benzoate] | – | – | 0.0268 µM | – | – |
| COC[C@H](C)NC(=O)c1ccc(CN(C2CCCCC2F)S(=O)(=O)c2ccc(Cl)cc2)cc1 (stereo partly drawn) [Example 86, 4-((4-Chloro-N-(2-fluorocyclohexyl)phenylsulfonamido)methyl)-N—((S)-1-methoxypropan-2-yl)benzamide] | – | – | 0.103 µM | – | – |
| COC(=O)c1ccc(CN(C2CCOCC2)S(=O)(=O)c2ccc(Cl)cc2)cc1 [Example 12, Methyl 4-((4-chloro-N-(tetrahydro-2H-pyran-4-yl)phenylsulfonamido)methyl)-benzoate] | – | – | – | 0% | – |
| C[C@H](CO)NC(=O)c1ccc(CN(C2CCCCC2F)S(=O)(=O)c2ccc(Cl)cc2)cc1 (stereo partly drawn) [Example 60, 4-((4-Chloro-N-(2-fluorocyclohexyl)phenylsulfonamido)methyl)-N—((R)-1-hydroxypropan-2-yl)benzamide] | 1.55 µM | 305 | 0.00458 µM and 0.007 µM | – | – |
| CN(C)CCNC(=O)c1ccc(CN(C2CCCCC2F)S(=O)(=O)c2ccc(Cl)cc2)cc1.Cl (centres unmarked) [Example 75, 4-((4-Chloro-N-(2-fluorocyclohexyl)phenylsulfonamido)methyl)-N-(2-(dimethylamino)ethyl)benzamide hydrochloride] | 4.14 µM | 80 | 0.0328 µM and 0.0707 µM | – | – |
| C[C@H](O)CNC(=O)c1ccc(CN(C2CCCCC2F)S(=O)(=O)c2ccc(Cl)cc2)cc1 (stereo partly drawn) [Example 73, 4-((4-Chloro-N-(2-fluorocyclohexyl)phenylsulfonamido)methyl)-N—((S)-2-hydroxypropyl)benzamide] | 1.1 µM | 106 | 0.0104 µM | – | – |
| CN(C)CCNC(=O)c1ccc(CN(C2CCCCC2F)S(=O)(=O)c2ccc(Cl)cc2)cc1 (centres unmarked) [Example 74, 4-((4-Chloro-N-(2-fluorocyclohexyl)phenylsulfonamido)methyl)-N-(2-(dimethylamino)ethyl)benzamide] | 10 µM | 78 | 0.13 µM | – | – |
| O=C(NCCO)c1ccc(CN(C2CCCCC2F)S(=O)(=O)c2ccc(Cl)cc2)cc1 (centres unmarked) [Example 66, 4-((4-Chloro-N-(2-fluorocyclohexyl)phenylsulfonamido)methyl)-N-(2-hydroxyethyl)benzamide] | 1.38 µM | 134 | 0.0103 µM | – | – |
| CC1CCCC(N(Cc2ccc(C(=O)O)cc2)S(=O)(=O)c2ccc(Cl)cc2)C1 (centres unmarked) [Example 43, 4-((4-Chloro-N-(3-methylcyclohexyl)phenylsulfonamido)methyl)benzoic acid] | 2.82 µM and 2.73 µM | 19 | 0.148 µM | – | – |
| COC(=O)c1ccc(CN(C2CCCC(C(F)(F)F)C2)S(=O)(=O)c2ccc(Cl)cc2)cc1 (centres unmarked) [Example 49, Methyl 4-((4-chloro-N-(3-(trifluoromethyl)cyclohexyl)phenylsulfonamido)methyl)benzoate] | – | – | 0.0073 µM | – | – |
| O=C(NCCN1CCCC1)c1ccc(CN(C2CCCCC2F)S(=O)(=O)c2ccc(Cl)cc2)cc1 (centres unmarked) [Example 87, 4-((4-Chloro-N-(2-fluorocyclohexyl)phenylsulfonamido)methyl)-N-(2-(pyrrolidin-1-yl)ethyl)benzamide] | – | – | 0.00691 µM | – | – |
| COC[C@@H](C)NC(=O)c1ccc(CN(C2CCCCC2F)S(=O)(=O)c2ccc(Cl)cc2)cc1 (stereo partly drawn) [Example 88, 4-((4-Chloro-N-(2-fluorocyclohexyl)phenylsulfonamido)methyl)-N-((R)-1-methoxypropan-2-yl)benzamide] | – | – | 0.00731 µM | – | – |
| COC(=O)c1ccc(CN(C2CCCC(C)C2)S(=O)(=O)c2ccc(Cl)cc2)cc1 (centres unmarked) [Example 42, Methyl 4-((4-chloro-N-(3-methylcyclohexyl)phenylsulfonamido)methyl)benzoate] | – | – | 0.00944 µM | – | – |
| CC1CCCCC1N(Cc1ccc(C(=O)NCCN2CCCC2)cc1)S(=O)(=O)c1ccc(Cl)cc1 (centres unmarked) [Example 38, 4-((4-Chloro-N-(2-methylcyclohexyl)phenylsulfonamido)methyl)-N-(2-(pyrrolidin-1-yl)ethyl)benzamide] | 0.667 µM | 64 | 0.0083 µM and 0.0128 µM | – | – |
| C[C@@H](CO)NC(=O)c1ccc(CN(C2CCCCC2F)S(=O)(=O)c2ccc(Cl)cc2)cc1 (stereo partly drawn) [Example 89, 4-((4-Chloro-N-(2-fluorocyclohexyl)phenylsulfonamido)methyl)-N—((S)-1-hydroxypropan-2-yl)benzamide] | – | – | 0.0354 µM | – | – |
| COC(=O)c1cc(CN(C2CCOCC2)S(=O)(=O)c2ccc(Cl)cc2)ccc1OC [Example 7, Methyl 5-((4-chloro-N-(tetrahydro-2H-pyran-4-yl)phenylsulfonamido)methyl)-2-methoxybenzoate] | – | – | – | 0% | – |
| O=C(O)c1ccc(CN(C2CCC(F)CC2)S(=O)(=O)c2ccc(Cl)cc2)cc1 (centres unmarked) [Example 82, 4-((4-Chloro-N-(4-fluorocyclohexyl)phenylsulfonamido)methyl)benzoic acid] | – | – | – | – | 0% |
| COC(=O)c1ccc(CN(C2CCCCC2F)S(=O)(=O)c2ccc(Cl)nc2)cc1 (centres unmarked) [Example 61, Methyl 4-((6-chloro-N-(2-fluorocyclohexyl)pyridine-3-sulfonamido)methyl)benzoate] | – | – | 0.0104 µM | – | – |
| CN(C)CCNC(=O)c1ccc(CN(C2CCCCC2F)S(=O)(=O)c2ccc(Cl)nc2)cc1 (centres unmarked) [Example 80, 4-((6-Chloro-N-(2-fluorocyclohexyl)pyridine-3-sulfonamido)methyl)-N-(2-(dimethylamino)ethyl)benzamide hydrochloride] | – | – | – | 65% | – |
